Where “and” joins values, the source holds several entries; their conditions need not be identical. Equal entries are not always repeated. Where two headings read alike, the source gives them in different places.
Tests used:
Type in all cases: in vivo
[1] = system: Heliothis virescens (tobacco budworm); test: Heliothis virescens eggs in 24-well microtiter plate on artificial diet, larval mortality; settings: Heliothis virescens, 96 h, read-out: AVERAGE DEAD IN %
Description: (§1) The action to be expected E for a given active ingredient combination obeys the so-called COLBY formula and can be calculated as follows (COLBY, S.R. “Calculating synergistic and antagonistic responses of herbicide combination”. Weeds, Vol. 15, pages 20-22; 1967):
(§2) ppm=milligrams of active ingredient (=a.i.) per liter of spray mixture X=% action by active ingredient A) using p ppm of active ingredient Y=% action by active ingredient B) using q ppm of active ingredient.
(§3) According to COLBY, the expected (additive) action of active ingredients A)+B) using p+q ppm of active ingredient is
(§4) If the action actually observed (O) is greater than the expected action (E), then the action of the combination is super-additive, i.e. there is a synergistic effect. In mathematical terms the synergism factor SF corresponds to O/E. In the agricultural practice an SF of ≧1.2 indicates significant improvement over the purely complementary addition of activities (expected activity), while an SF of ≦0.9 in the practical application routine signals a loss of activity compared to the expected activity.
Heliothis Virescens (Tobacco Budworm)
Eggs (0-24 h old) are placed in 24-well microtiter plate on artificial diet and treated with test solutions (DMSO) by pipetting. After an incubation period of 4 days, samples are checked for larval mortality.

[2] = system: Heliothis virescens (tobacco budworm); test: Heliothis virescens ovo-larvicide, feeding/contact, eggs on filter paper in Petri dishes; settings: for AVERAGE DEAD IN % (EGGS) / AVERAGE DEAD IN % (LARVAE): single compound, 7 days; for activity on eggs: egg mortality, 7 days incubation
Description: as §1, §2, §3, §4
Heliothis Virescens (Tobacco Budworm):
(Ovo-Larvicide, Feeding/Contact)
30-35 fresh eggs (0-24 h old), deposited on filter paper, are placed in Petri dishes on top of a layer of artificial diet and 0.8 ml of diluted test solutions are pipetted onto them. After an incubation period of 7 days, samples are checked for egg and larval mortality. 3 replicates per treatment were evaluated.

[3] = system: Tetranychus urticae (two spotted spider mite); test: Tetranychus urticae contact/feeding activity on bean plants, adult mortality
Description: as §1, §2, §3, §4
Tetranychus Urticae (Two Spotted Spider Mite)
(Contact/Feeding Activity)
Bean plants are infested with mite populations of mixed ages. 1 day after infestation, plants are treated in a spray chamber with diluted test solutions. 1 and 8 days later, samples are checked for adult mortality. 2 replicates per treatment were evaluated.

[4] = system: Spodoptera littoralis (Egyptian cotton leaf worm); test: Spodoptera littoralis larvicide L1, feeding/contact, cotton leaf discs; settings: single compound
Description: as §1, §2, §3, §4
Spodoptera Littoralis (Egyptian Cotton Leaf Worm)
(Larvicide L1, Feeding/Contact)
Cotton leaf discs are placed on agar in Petri dishes and sprayed with test solutions in an application chamber. After drying, the leaf discs are infested with 10 L1 larvae. The samples are checked for mortality 5 days after treatment. 3 replicates per treatment were evaluated. (1 PPM=1 mg l^−1)

[5] = single compound at 0.025 ppm AI

CC1(C)[C@H](C(=O)O[C@H](C#N)c2cccc(Oc3ccccc3)c2)[C@@H]1/C=C(\Cl)C(F)(F)F (racemic) [Lambda Cyhalothrin, lambda-cyhalothrin] was tested, and the pest or weed control at 0.00625 ppm ([1]; Lambda Cyhalothrin alone 0.00625 ppm AI) was 0%, the pest or weed control at 0.0125 ppm ([1]; Lambda Cyhalothrin alone 0.0125 ppm AI) was 0% and the pest or weed control at 0.025 ppm ([1]; Lambda Cyhalothrin alone 0.025 ppm AI) was 0%. For the same compound, the pest or weed control at 0.05 ppm ([1]; Lambda Cyhalothrin alone 0.05 ppm AI) was 0%, the pest or weed control at 0.1 ppm ([1]; Lambda Cyhalothrin alone 0.1 ppm AI) was 25% and the pest or weed control at 0.2 ppm ([1]; Lambda Cyhalothrin alone 0.2 ppm AI) was 75%. The pest or weed control at 0.00625 ppm ([1]; single compound at 0.00625 ppm AI) was 0%, the pest or weed control at 0.0125 ppm ([1]; single compound at 0.0125 ppm AI) was 0% and the pest or weed control at 0.025 ppm [1, 5] was 0%. It also gave a pest or weed control at 0.05 ppm ([1]; single compound at 0.05 ppm AI) of 0%, a pest or weed control at 0.1 ppm ([1]; single compound at 0.1 ppm AI) of 25% and a pest or weed control at 0.2 ppm ([1]; single compound at 0.2 ppm AI) of 75%. The “AVERAGE DEAD IN % (EGGS)” value ([2]; 0.05 ppm AI) was 0%, the “AVERAGE DEAD IN % (LARVAE)” value ([2]; 0.05 ppm AI, larvae) was 33% and the “AVERAGE DEAD IN % (EGGS)” value ([2]; 0.1 ppm AI) was 17%. For the same compound, the “AVERAGE DEAD IN % (LARVAE)” value ([2]; 0.1 ppm AI, larvae) was 100%, the “AVERAGE DEAD IN % (EGGS)” value ([2]; 0.2 ppm AI) was 50% and the “AVERAGE DEAD IN % (LARVAE)” value ([2]; 0.2 ppm AI, larvae) was 100%. The “AVERAGE DEAD IN % AFTER 1 DAY” value ([3]; 3.125 ppm alone) was 70%, the “AVERAGE DEAD IN % AFTER 1 DAY” value ([3]; 6.25 ppm alone) was 90% and the “AVERAGE DEAD IN % AFTER 8 DAYS” value ([3]; 6.25 ppm alone) was 85% and 90%. The “AVERAGE DEAD IN % AFTER 1 DAY” value ([3]; 12.5 ppm alone) was 83%, the “AVERAGE DEAD IN % AFTER 8 DAYS” value ([3]; 12.5 ppm alone) was 98% and 90% and the “AVERAGE DEAD IN % AFTER 1 DAY” value ([3]; Lambda Cyhalothrin alone 3.125 ppm AI) was 25%. For the same compound, the “AVERAGE DEAD IN % AFTER 1 DAY” value ([3]; Lambda Cyhalothrin alone 6.25 ppm AI) was 55%, the “AVERAGE DEAD IN % AFTER 1 DAY” value ([3]; Lambda Cyhalothrin alone 12.5 ppm AI) was 88% and the “AVERAGE DEAD IN % AFTER 5 DAYS” value ([4]; 0.05 PPM AI) was 10% and 20%. For the same compound, the “AVERAGE DEAD IN % AFTER 5 DAYS” value ([4]; 0.05 ppm AI) was 20%, the “AVERAGE DEAD IN % AFTER 5 DAYS” value ([4]; 0.1 ppm AI) was 37% and the “AVERAGE DEAD IN % AFTER 5 DAYS” value ([4]; 0.2 ppm AI) was 57%.
With CCOP(=S)(OCC)Oc1nc(Cl)c(Cl)cc1Cl [Chlorpyriphos, chlorpyrifos] the pest or weed control at 25 ppm ([1]; single compound at 25 ppm AI) was 45%, the pest or weed control at 50 ppm ([1]; single compound at 50 ppm AI) was 90% and the pest or weed control at 100 ppm ([1]; single compound at 100 ppm AI) was 100%. For the same compound, the pest or weed control at 200 ppm ([1]; single compound at 200 ppm AI) was 100%, the pest or weed control at 400 ppm ([1]; single compound at 400 ppm AI) was 100% and the pest or weed control at 800 ppm ([1]; single compound at 800 ppm AI) was 100%. The activity on eggs [2] was “inactive”, the “AVERAGE DEAD IN % (LARVAE)” value ([2]; 50 ppm AI, larvae) was 0% and the “AVERAGE DEAD IN % (LARVAE)” value ([2]; 100 ppm AI, larvae) was 0%. The “AVERAGE DEAD IN % (LARVAE)” value ([2]; 200 ppm AI, larvae) was 30%, the “AVERAGE DEAD IN % AFTER 8 DAYS” value ([3]; 50 ppm alone) was 0% and the “AVERAGE DEAD IN % AFTER 8 DAYS” value ([3]; 100 ppm alone) was 20%. The “AVERAGE DEAD IN % AFTER 8 DAYS” value ([3]; 200 ppm alone) was 63%, the “AVERAGE DEAD IN % AFTER 1 DAY” value ([3]; Chlorpyrifos alone 50 ppm AI) was 0% and the “AVERAGE DEAD IN % AFTER 1 DAY” value ([3]; Chlorpyrifos alone 100 ppm AI) was 60%. The “AVERAGE DEAD IN % AFTER 1 DAY” value ([3]; Chlorpyrifos alone 200 ppm AI) was 88%, the “AVERAGE DEAD IN % AFTER 5 DAYS” value ([4]; 12.5 PPM AI) was 10% and 7% and the “AVERAGE DEAD IN % AFTER 5 DAYS” value ([4]; 25 PPM AI) was 17% and 10%. For the same compound, the “AVERAGE DEAD IN % AFTER 5 DAYS” value ([4]; 50 PPM AI) was 30% and 20%.
CNC(=O)c1cc(C#N)cc(C)c1NC(=O)c1cc(Br)nn1-c1ncccc1Cl [Cyantraniliprole, cyantraniliprole] was tested, and the pest or weed control at 0.025 ppm ([1]; Cyantraniliprole alone 0.025 ppm AI) was 0%, the pest or weed control at 0.05 ppm ([1]; Cyantraniliprole alone 0.05 ppm AI) was 0% and the pest or weed control at 0.1 ppm ([1]; Cyantraniliprole alone 0.1 ppm AI) was 45%. It also gave a pest or weed control at 0.2 ppm ([1]; Cyantraniliprole alone 0.2 ppm AI) of 78%, a pest or weed control at 0.4 ppm ([1]; Cyantraniliprole alone 0.4 ppm AI) of 90% and a pest or weed control at 0.8 ppm ([1]; Cyantraniliprole alone 0.8 ppm AI) of 100%. For the same compound, the pest or weed control at 0.025 ppm [1, 5] was 0%, the pest or weed control at 0.05 ppm ([1]; single compound at 0.05 ppm AI) was 0% and the pest or weed control at 0.1 ppm ([1]; single compound at 0.1 ppm AI) was 45%. It also gave a pest or weed control at 0.2 ppm ([1]; single compound at 0.2 ppm AI) of 78%, a pest or weed control at 0.4 ppm ([1]; single compound at 0.4 ppm AI) of 90% and a pest or weed control at 0.8 ppm ([1]; single compound at 0.8 ppm AI) of 100%. For the same compound, the activity on eggs [2] was “inactive”, the “AVERAGE DEAD IN % (LARVAE)” value ([2]; 0.2 ppm AI, larvae) was 23% and the “AVERAGE DEAD IN % (LARVAE)” value ([2]; 0.4 ppm AI, larvae) was 70% and 63%. For the same compound, the “AVERAGE DEAD IN % (LARVAE)” value ([2]; 0.8 ppm AI, larvae) was 82% and 72%, the “AVERAGE DEAD IN % AFTER 8 DAYS” value ([3]; 100 ppm alone) was 35% and the “AVERAGE DEAD IN % AFTER 8 DAYS” value ([3]; 200 ppm alone) was 25%. The “AVERAGE DEAD IN % AFTER 1 DAY” value ([3]; Cyantraniliprole alone 100 ppm AI) was 0%, the “AVERAGE DEAD IN % AFTER 1 DAY” value ([3]; Cyantraniliprole alone 200 ppm AI) was 10% and the “AVERAGE DEAD IN % AFTER 5 DAYS” value ([4]; 0.0125 PPM AI) was 23%. For the same compound, the “AVERAGE DEAD IN % AFTER 5 DAYS” value ([4]; 0.025 PPM AI) was 27% and 30% and the “AVERAGE DEAD IN % AFTER 5 DAYS” value ([4]; 0.05 PPM AI) was 40% and 50%.
With CC1=NNC(=O)N(/N=C/c2cccnc2)C1 [Pymetrozine, pymetrozine] the pest or weed control at 25 ppm ([1]; Pymetrozine alone 25 ppm AI) was 0%, the pest or weed control at 50 ppm ([1]; Pymetrozine alone 50 ppm AI) was 0% and the pest or weed control at 100 ppm ([1]; Pymetrozine alone 100 ppm AI) was 0%. The pest or weed control at 200 ppm ([1]; Pymetrozine alone 200 ppm AI) was 0%, the pest or weed control at 400 ppm ([1]; Pymetrozine alone 400 ppm AI) was 0% and the pest or weed control at 800 ppm ([1]; Pymetrozine alone 800 ppm AI) was 0%. The pest or weed control at 25 ppm ([1]; single compound at 25 ppm AI) was 0%, the pest or weed control at 50 ppm ([1]; single compound at 50 ppm AI) was 0% and the pest or weed control at 100 ppm ([1]; single compound at 100 ppm AI) was 0%. The pest or weed control at 200 ppm ([1]; single compound at 200 ppm AI) was 0%, the pest or weed control at 400 ppm ([1]; single compound at 400 ppm AI) was 0% and the pest or weed control at 800 ppm ([1]; single compound at 800 ppm AI) was 0%. For the same compound, the activity on eggs [2] was “inactive”, the “AVERAGE DEAD IN % (LARVAE)” value ([2]; 100 ppm AI, larvae) was 0% and the “AVERAGE DEAD IN % (LARVAE)” value ([2]; 200 PPM AI) was 37%. For the same compound, the “AVERAGE DEAD IN % (LARVAE)” value ([2]; 200 ppm AI, larvae) was 40%, the “AVERAGE DEAD IN % AFTER 8 DAYS” value ([3]; 200 ppm alone) was 0% and the “AVERAGE DEAD IN % AFTER 1 DAY” value ([3]; Pymetrozine alone 200 ppm AI) was 5%. For the same compound, the “AVERAGE DEAD IN % AFTER 5 DAYS” value ([4]; 100 PPM AI) was 17% and 7%, the “AVERAGE DEAD IN % AFTER 5 DAYS” value ([4]; 100 ppm AI) was 7% and the “AVERAGE DEAD IN % AFTER 5 DAYS” value ([4]; 200 PPM AI) was 20% and 17%. For the same compound, the “AVERAGE DEAD IN % AFTER 5 DAYS” value ([4]; 200 ppm AI) was 17%.

From patent US20130085064A1, “PESTICIDAL MIXTURES CONTAINING ISOXAZOLINE DERIVATIVES AND INSECTICIDE OR NEMATOICIDAL BIOLOGICAL AGENT” (priority 2010, published 2013)
